Test results reported in patent publication US9409978B2, “Modulation of midbody derivatives” (University of Massachusetts, priority 2011, dated 2016).
“Also recorded” adds a separate entry of the source.

Columns and labels:
hESCs (H1, H9) = experiment: Lysosome inhibition, MBd quantification in hESCs; settings: chloroquine treatment
Description: Quantification was based on the markers that: 1) labeled both mitotic MBs and MBds (MKLP1, mgcRACGAP, or Cep55); 2) labeled MBs differently than MBds (α-tubulin or Aurora B); 3) defined cell boundaries (α-tubulin or ZO-1). Because Cep55, MKLP1, and mgcRACGAP also label centrioles and spindle midzones, cells were co-stained with centrosome antibody (e.g. 5051), and a size threshold for MB/MBds (1 μm) was introduced to exclude non-MBd structures. Structures with MB-specific or non-MB/MBd labeling were excluded from MBd counts. Cell counts: For hESCs, 5-11 colonies were imaged from triplicates in each experiment. For other cell types, random fields were imaged until n>500 cells. Each dividing cell was considered one cell.
Cells at 70% confluency were incubated with chloroquine (200 μM/PBS; Sigma), E64d+ pepstatin A (E64d/PepA) (10 μg ml^−1/DMSO each; Sigma) (Klionsky et al., 2008, Autophagy, 4:151-175; Komatsu et al., 2007, Cell, 131:1149-63) or solvents alone (controls) for 22 hours before fixation. Lysosome inhibition was confirmed and visualized after 12-hour DQ-Red BSA (10 μg ml^−1; Invitrogen) incubation.

MCF-7 cancer cells = experiment: Lysosome inhibition, MBd quantification in MCF-7 cells; format: cell-based; settings: lysosomal inhibition 22 hours
Description: (§1) Each dividing cell was considered one cell.

HeLa cells = experiment: Lysosome inhibition, MBd quantification in HeLa cells; format: cell-based; settings: lysosomal inhibition 22 hours
Description: as §1

hRPE-1 cells = experiment: Lysosome inhibition, MBd quantification in hRPE-1 cells; format: cell-based; settings: lysosomal inhibition 22 hours
Description: as §1

CCN(CC)CCCC(C)Nc1ccnc2cc(Cl)ccc12 (stereo not shown) [chloroquine]
effect of treatment on the cells (differentiation, cell death) (hESCs (H1, H9)): caused differentiation and cell death | percent of MBd+ cells (MBd levels) (MCF-7 cancer cells): largely unaffected; also recorded: no detectable effect | percent of MBds in lysosomes (MCF-7 cancer cells): largely unaffected | percent of MBd+ cells (MBd levels) (HeLa cells): modest increase; also recorded: increase the percent of MBd+ cells | presence of MBds in lysosomes (HeLa cells): presence of MBds in lysosomes | percent of MBds found within lysosomes (hRPE-1 cells; LAMP2 lysosome marker): elevated; also recorded: presence of MBds in lysosomes | percent of MBd+ cells (MBd levels) (hRPE-1 cells; chloroquine 200 μM or E64d/PepA 10 μg/ml each): elevated; also recorded: increase the percent of MBd+ cells
